Laboratory results as given in patent publication EP4606801A1, “FUSED HETEROCYCLIC COMPOUND AND USE THEREOF” (Chengdu Zenitar Biomedical Technology Co., Ltd., priority 2022, dated 2024).

Tested on: breast cancer MDA-MB-436
Experiment: In-vivo pharmacodynamic study on subcutaneous xenograft tumor model of breast cancer MDA-MB-436
Parameters: species or system NOD/SCID mice
Settings: for RTV / Tumor volume T/C% / Tumor weight (g) X±SD / Body weight (g) X±SD End / Tumor volume (mm^3) X±SD End: 24 days
Method: Strain: NOD/SCID; Grade: SPF; Source: Beijing Vitron River Bio-technology Co., Ltd.
The cells were washed 3 times with pre-cooled PBS, centrifuged at 300 g for 10 min, collected, re-suspended in PBS, and counted with a blood cell counting chamber, and the cell concentration was adjusted. After cell collection, the cell suspension was pre-cooled on ice. 100 µL of the cell suspension was administered via subcutaneous injection into the dorsal flank of the mice, and the grouped treatment was started when the tumor volume reached 200-300 mm^3.
General observation: Observation of animals: all live experimental animals to be observed; Observation time: twice a day; Observation items: including but not limited to general performance, behavioral status, eyes, mouth, nose and mouth, ears, hair, stool, urine, genitalia and other toxic symptoms; If abnormalities are observed, provide a detailed description.
Animal assay: all viable experimental animals scheduled for assay; Assay time: All animals were weighed before the modeling for test grouping. After modeling, the mice were weighed once every 2 days, and the weight change of the mice was recorded in real time. Effective criteria: tumor volume (TV), relative tumor volume (RTV) and relative tumor growth rate of subcutaneously implanted tumor model. […] The calculation formula of tumor volume (TV) was: TV (mm^3) = a×b2×0.5, where a and b were the long diameter and short diameter, respectively.
The evaluation index for anti-tumor activity was the relative tumor growth rate T/C (%), and the calculation formula was as follows: T/C(%) = TRTV/CRTV × 100%; [formula]
Where, TRTV is relative tumor volume of the treatment group; CRTV is relative tumor volume of the negative control group. Therapeutic evaluation criteria: T/C (%)> 60 is considered ineffective; T/C (%) ≤ 60, and P < 0.05 (through statistical analysis) is considered effective. Measurement of tumor weight and tumor inhibition rate (%): At the end of the treatment period, the animals were euthanize, tumor masses dissected and isolated, tumors weighed, and photographs took. The tumor inhibition rate (%) was calculated by the formula below: [formula]
All raw data within the facility were collected manually according to the experimental scheme and the relevant guidelines of the research institution, or gathered by using a data acquisition system. Manually collected data can be transcribed into software such as Excel for analysis and reporting. The data from each group were quantitative, and the experimental data for each group of animals in the tables were expressed as mean ± standard deviation (Mean ± SD). In the figures, the experimental data ware described as mean ± standard error of the mean (Mean ± SEM). Statistical analysis, including t-tests and survival analysis, was performed by using the software such as EXCEL and GraphPad Prism.
After 24 days of administration, the tumor-bearing mice were anesthetized and euthanized. The tumor tissues were dissected, weighed, and photographed, and the tumor inhibition rate was calculated.

In the case of `[2H]C([2H])([2H])C([2H])([2H])c1cc2ncc(CN3CC=C(c4ccc(C(=O)NC)nc4)CC3)cc2[nH]c1=O` [Compound 6, 1'-((7-(ethyl-d5)-6-oxo-5,6-dihydro-1,5-naphthyridin-3-yl)methyl)-N-methyl-1',2',3',6'-tetrahy dro-[3,4'-bipyridine]-6-carboxamide], the RTV (0.03 mg/kg orally once daily) is reported as 2.7, the “Tumor volume T/C%” value (0.03 mg/kg orally once daily) is reported as 40.8% and the “Tumor weight (g) X±SD” value (0.03 mg/kg orally once daily) is reported as 1.09 ± 0.29 g. The “Body weight (g) X±SD End” value (0.03 mg/kg orally once daily) was 21.6 ± 0.7 g, the “Tumor volume (mm^3) X±SD End” value (0.03 mg/kg orally once daily) was 739.4±308.7 mm^3 and the “Body weight (g) X±SD Start” value (0.03 mg/kg orally once daily) was 22.6 ± 0.7 g. The “Tumor volume (mm^3) X±SD Start” value (0.03 mg/kg orally once daily) was 275.0±68.1 mm^3, the RTV (0.1 mg/kg orally once daily) was 0.8 and the “Tumor volume T/C%” value (0.1 mg/kg orally once daily) was 12.6%. For the same molecule, the “Tumor weight (g) X±SD” value (0.1 mg/kg orally once daily) was 0.29 ± 0.09 g, the “Body weight (g) X±SD End” value (0.1 mg/kg orally once daily) was 21.6 ± 0.7 g and the “Tumor volume (mm^3) X±SD End” value (0.1 mg/kg orally once daily) was 228.0±75.9 mm^3. For the same molecule, the “Body weight (g) X±SD Start” value (0.1 mg/kg orally once daily) was 22.3 ± 1.0 g, the “Tumor volume (mm^3) X±SD Start” value (0.1 mg/kg orally once daily) was 274.7±73.8 mm^3 and the RTV (0.3 mg/kg orally once daily) was 0.3. For the same molecule, the “Tumor volume T/C%” value (0.3 mg/kg orally once daily) was 3.8%, the “Tumor weight (g) X±SD” value (0.3 mg/kg orally once daily) was 0.09 ± 0.08 g and the “complete tumor regression (mice out of 6)” value (0.3 mg/kg orally once daily, at the end of treatment) was 2/6. For the same molecule, the “Body weight (g) X±SD End” value (0.3 mg/kg orally once daily) was 22.0 ± 0.9 g, the “Tumor volume (mm^3) X±SD End” value (0.3 mg/kg orally once daily) was 71.0±62.5 mm^3 and the “Body weight (g) X±SD Start” value (0.3 mg/kg orally once daily) was 22.3 ± 0.8 g. The “Tumor volume (mm^3) X±SD Start” value (0.3 mg/kg orally once daily) was 281.9±67.4 mm^3.
